From patent US20220378854A1, “COMPOSITION FOR PREVENTING, TREATING, OR IMPROVING GASTROINTESTINAL DISEASES COMPRISING STRAIN OF GENUS CORYNEBACTERIUM AND CULTURE THEREOF” (CJ CheilJedang Corporation, priority 2019, published 2022)

What was measured:
WIRS rats [1] = assay: CDK4 and Cyclin D1 protein in WIRS rats; type: in vivo, rat; details: oral 8 hours before WIRS; WIRS 6 hours
Protocol: (§1) They were divided into a untreated group in which nothing was treated after oral administration of saline solution ([…], animal experimental group 1), WIRS Group in which WIRS was applied for 6 hours ([…], animal experimental group 2), and animal experimental groups in which feed containing Sample 1 (prepared in Example 8) of 0.15% by weight (animal experimental group 3) and feed containing Sample 3 (prepared in Example 8) of 0.21% by weight (animal experimental group 4) were orally treated by 30 mg/kg body, respectively, 8 hours before WIRS treatment. The content of L-Thr (L-threonine) in the feed of the animal experimental groups 3 and 4 was set to 0.15% by weight/diet equally.
(§2) In addition, in each of the animal experimental groups 1-4, the protein level of p-IκBα, p-ERK, and p-JNK was measured and shown in FIG. 8c and FIG. 8d. Specifically, to perform western blot for measuring the protein level, the collected gastric mucosa was homogenized in ice-cold 20 mM Tris-HCl buffer (pH 7.5) containing 2 mM EDTA (ethylenediaminetetraacetic acid), 0.5 mM EGTA (ethylene glycol tetraacetic acid), 300 mM sucrose, and 2 mM PMSF (phenylmethylsulfonyl fluoride) with a tissue homogenator. […] The immune complex was detected using ECL detection kit (Amersham Biosciences Korea, Seoul, Korea) and X-ray film was automatically irradiated. […]

WIRS rats [2] = assay: apoptosis proteins in WIRS rats (western blot); type: in vivo, rat; details: oral 8 hours before WIRS; WIRS 6 hours
Protocol: as §1
In addition, in each of the animal experimental groups 1-4, the protein level of p-IκBα, p-ERK, and p-JNK was measured and shown in FIG. 8c and FIG. 8d. Specifically, to perform western blot for measuring the protein level, the collected gastric mucosa was homogenized in ice-cold 20 mM Tris-HCl buffer (pH 7.5) containing 2 mM EDTA (ethylenediaminetetraacetic acid), 0.5 mM EGTA (ethylene glycol tetraacetic acid), 300 mM sucrose, and 2 mM PMSF (phenylmethylsulfonyl fluoride) with a tissue homogenator. After electrophoresis of protein of 30 μg in 8% SDS-PAGE (sodium dodecyl sulfate-polyacrylamide gel electrophoresis) gel, it was transferred to PVDF (polyvinylidene fluoride) membrane using a semidry transfer system (Hoefer, Holliston, Mass., USA). Non-specific binding was blocked by incubation with 5% non-fat dry milk. The membrane was thermostatically incubated with a 500-fold diluted solution of a primary antibody at 4° C. overnight, and then incubated with an HRP (horseradish peroxidase) binding-secondary antibody diluted by 1:1000. The immune complex was detected using ECL detection kit (Amersham Biosciences Korea, Seoul, Korea) and X-ray film was automatically irradiated. Antibodies used for western blot were as follows. β-actin, iNOS (nitric oxide synthase), COX-2 (cyclooxygenase), P-JNK (phosphor-JNK), P-ERK (phosphor-ERK), Bcl-2 (B-cell lymphoma 2), Bax (B-cell lymphoma-2-associated X-protein), and cyclin D1 antibodies were purchased from Santa Cruz Biotechnology (Santa Cruz, Calif.). p-IκBα (phosphorylated inhibitor of kappa B alpha), p-STAT3 (phosphorylated signal transducer and activator of transcription 3), PARP (poly(ADP-ribose) polymerase), CDK4 (cyclin-dependent kinase 4), and CDK2 (cyclin dependent kinase 2) were purchased from Cell Signaling Technology (Beverly, Mass.). HO-1 (A heme oxygenase-1) antibody was purchased from Enzo life Sciences (Farmingdale, N.Y.). […]

WIRS rats [3] = assay: WIRS rat model, stomach observed by naked eyes (gastrorrhagia); type: in vivo; details: oral, 8 hours before WIRS; same threonine 0.15% by weight/diet; WIRS 6 hours
Protocol: (§3) 110 SD rats in total were purchased from Charles River (Osaka, Japan) and stored in an animal facility. The experimental animals were handled in the authorized animal facility according to AAALAC International Animal Care Policies. The animals were fasted 24 hours prior to be exposed to WIRS, and water was freely available. 10 rats of each group were placed in a cage for WIRS and immersed in water for 6 hours.
Sample 1 to Sample 5 prepared in Example 8 were orally administered to rats 8 hours before WIRS treatment, so that the same amount of threonine was administered (0.15% by weight/diet), and after applying WIRS for 6 hours, the animals were sacrificed and the stomach was extracted and incised and contents were removed, and a picture of the inner surface of the stomach was taken and this was shown in FIG. 11.

WIRS rats [4] = assay: SRMD improving efficacy in WIRS rats (gross lesion index, pathologic scores); type: in vivo, rat; details: oral 8 hours before WIRS; L-Thr 0.15% by weight/diet; WIRS 6 hours
Protocol: as §3, §1
All experimental animals (rat) were sacrificed with a high dose of anesthetic (thiopental sodium, 50 mg/kg) after 6 hours of WIRS. The animal experimental groups 1-4 disclosed in the following Examples 10 to 12 mean the animal experimental groups 1-4 of the Table 5, and in FIG. 7a to FIG. 10, Groups 1-4 mean the animal experimental groups 1-4 of Table 5.
The stomach of the rat sacrificed in Example 9 was incised and opened along the larger curvature, and then washed with cold PBS solution. After determining the number and size of erosions or ulcers by enlarged photographs, the half was anatomized for anatomical observation. The incised stomach was spread over plastic sheet and fixed in 10% buffer formalin for 4 hours and used for production of a paraffin tissue slide, and the other half was stored in a liquid nitrogen tank for molecular biological observation. In addition, the mucosal homogenate was stored by mixing the same animal experimental groups.
The stomach sample was observed using […] naked eyes (FIG. 7a), and in the control group and each experimental group (animal experimental groups 1-4), gross lesion index, inflammation; pathologic score, ulcer/erosion; pathologic score, regeneration; pathologic score were calculated and shown in FIG. 7b.

WIRS rats [5] = assay: mucin content in stomach tissue of WIRS rats by PAS staining; type: in vivo, rat; details: oral 8 hours before WIRS, WIRS 6 hours
Protocol: as §1
In the stomach tissue of the animal experimental groups 1 to 4, the mucin content was confirmed by PAS staining, and the result was shown in FIG. 10.

WIRS rats [6] = assay: apoptosis on the gastric mucosa of WIRS rats (TUNEL, apoptotic index); type: in vivo, rat; details: oral 8 hours before WIRS; WIRS 6 hours
Protocol: as §1
Specifically, apoptosis was visualized using TdT FragEL DNA fragmentation detection kit (Oncogene Research Products, Cambridge, Mass.) and TUNEL (Terminal deoxynucleotidyl transferase-mediated nick end labeling) method. To measure AI (apoptotic index) by finding a region in which apoptosis occurs in a large quantity (apoptotic hot spot) in each experimental group, TUNEL-immunostained section (terminal deoxynucleotidyl transferase mediated dUTP nick-end labeling (TUNEL)-immunostained section) was enlarged 100 folds and scanned. Then, the number of TUNEL-positive cells was counted in 400 fields to record AI. […]

WIRS rats [7] = assay: p-IκBα, p-ERK, p-JNK protein level in gastric mucosa of WIRS rats (western blot); type: in vivo, rat; details: oral 8 hours before WIRS, WIRS 6 hours
Protocol: as §1, §2

WIRS rats [8] = assay: mRNA expression of inflammation mediators and PDGF in WIRS rats; type: in vivo, rat; details: oral 8 hours before WIRS; L-Thr 0.15% by weight/diet; WIRS 6 hours
Protocol: as §1
Since SRMD was physiologically related to ischemic-reperfusion damage, in the animal experimental groups 1 to 4, mRNA expression of angiogenesis growth factors including PDGF (platelet-derived growth factor) and mRNA expression of inflammation mediators, iNOS, TNF-α, IFN-γ, and PDGF were measured, and the result was shown in FIG. 8a and FIG. 8b.
Specifically, the total RNA was extracted using RNeasy Mini kit (Qiagen Korea, Seoul, Korea). Amplification was analyzed using 10× reaction buffer (Promega Korea, Seoul, Korea), 1.5 mM/L MgCl2, […] deoxynucleotide triphosphate (dNTP), each primer […], and Taq DNA polymerase (Promega) 2.5 unit, using Perkin-Elmer GeneAmp PCR System 2400. Each cycle was composed of denaturation at 95° C. for 1 minute, annealing at 55° C. for […], and amplification at 72° C. for 45 seconds.

`C[C@@H](O)[C@H](N)C(=O)O` [Sample 1, threonine] was tested. Which “expression of CDK4” value (WIRS rats [1]) did it give?
The value was “significantly reduced”.

And the “expression of Cyclin D1” value (WIRS rats [1])?
The value was “significantly reduced”.

And the Bax expression (WIRS rats [2])?
Its Bax expression is “significantly reduced”.

And the PARP division (WIRS rats [2])?
Its PARP division is “significantly reduced”.

And the “cleaved caspase-3 expression” value (WIRS rats [2])?
The value was “significantly reduced”.

And the “cleaved caspase-8 expression” value (WIRS rats [2])?
The value was “significantly reduced”.

What about the “degree of gastrorrhagia reduced (therapeutic effect of gastric ulcer), rank order” value (WIRS rats [3]) of the same compound?
The value was “Sample 1<Sample 5<Sample 4<Sample 3 or Sample 2”.

And the “SRMD (erosions, hemorrhage, ulcers), stomach observation” value (WIRS rats [4])?
Its value is “significantly improved”.

And the gross lesion index (WIRS rats [4])?
The gross lesion index was “significantly (p<0.05) improved”.

And the “inflammation; pathologic score” value (WIRS rats [4])?
Its value is “significantly (p<0.05) improved”.

What about the “regeneration; pathologic score” value (WIRS rats [4]) of the same compound?
Its value is “significantly (p<0.05) improved”.

And the “ulcer/erosion; pathologic score” value (WIRS rats [4])?
Its value is “significantly (p<0.05) improved”.

And the “gastric mucin / mucus expression (PAS staining)” value (WIRS rats [5])?
The value was “significantly preserved”.

And the “apoptosis level on the gastric mucosa (TUNEL)” value (WIRS rats [6])?
The value was “significantly reduced”.

What about the “p-ERK activation (signaling)” value (WIRS rats [7]) of the same compound?
Its value is “partially inactivated”.

What about the “p-JNK activation (signaling)” value (WIRS rats [7]) of the same compound?
The value was “partially inactivated”.

What about the “IFN-γ mRNA expression” value (WIRS rats [8]) of the same compound?
Its value is “significantly reduced”.

What about the “PDGF mRNA expression” value (WIRS rats [8]) of the same compound?
The value was “significantly reduced”.

What about the “TNF-α mRNA expression” value (WIRS rats [8]) of the same compound?
The value was “significantly reduced”.

And the “iNOS mRNA expression” value (WIRS rats [8])?
Its value is “significantly reduced”.
